From ChEMBL document CHEMBL2346504, “Olive secoiridoids and semisynthetic bioisostere analogues for the control of metastatic breast cancer” (Bioorg Med Chem, 2013)
Activity calls are given as the source filed them. No cut-off for these calls is given here.

Legend:
[1] = tested on: MCF-10A; experiment: Cytotoxicity against human MCF10A cells at IC50 in wound healing assay after 24 hrs by MTT assay; format: cell-based
[2] = tested on: MDA-MB-231; experiment: Cytotoxicity against human MDA-MB-231 cells after 24 hrs by MTT assay; conditions: MDA-MB-231, 24 h
[3] = tested on: MDA-MB-231; experiment: Antimigratory activity against human MDA-MB-231 cells after 24 hrs by wound healing assay; conditions: MDA-MB-231, 24 h
[4] = tested on: MCF-10A; experiment: Cytotoxicity against human MCF10A cells at IC50 in MDA-MB-231 MTT assay after 24 hrs by MTT assay; format: cell-based
[5] = tested on: MDA-MB-231; experiment: Antiinvasive activity against human MDA-MB-231 cells at 10 to 20 uM after 24 hrs by Cultrex BME assay; format: functional, cell-based
[6] = tested on: MDA-MB-231; experiment: Antiinvasive activity against human MDA-MB-231 cells at 20 uM after 24 hrs by Cultrex BME assay; format: functional; conditions: MDA-MB-231, 24 h
[7] = tested on: MDA-MB-231; experiment: Antimigratory activity against human MDA-MB-231 cells at 25 uM after 24 hrs by wound healing assay; format: functional; conditions: for inhibition at 25 µM: MDA-MB-231, 24 h
[8] = target: T1, Hepatocyte growth factor receptor (Homo sapiens, UniProt P08581); conditions: 25 to 100 nM
T1 sequence (P08581 whole entry): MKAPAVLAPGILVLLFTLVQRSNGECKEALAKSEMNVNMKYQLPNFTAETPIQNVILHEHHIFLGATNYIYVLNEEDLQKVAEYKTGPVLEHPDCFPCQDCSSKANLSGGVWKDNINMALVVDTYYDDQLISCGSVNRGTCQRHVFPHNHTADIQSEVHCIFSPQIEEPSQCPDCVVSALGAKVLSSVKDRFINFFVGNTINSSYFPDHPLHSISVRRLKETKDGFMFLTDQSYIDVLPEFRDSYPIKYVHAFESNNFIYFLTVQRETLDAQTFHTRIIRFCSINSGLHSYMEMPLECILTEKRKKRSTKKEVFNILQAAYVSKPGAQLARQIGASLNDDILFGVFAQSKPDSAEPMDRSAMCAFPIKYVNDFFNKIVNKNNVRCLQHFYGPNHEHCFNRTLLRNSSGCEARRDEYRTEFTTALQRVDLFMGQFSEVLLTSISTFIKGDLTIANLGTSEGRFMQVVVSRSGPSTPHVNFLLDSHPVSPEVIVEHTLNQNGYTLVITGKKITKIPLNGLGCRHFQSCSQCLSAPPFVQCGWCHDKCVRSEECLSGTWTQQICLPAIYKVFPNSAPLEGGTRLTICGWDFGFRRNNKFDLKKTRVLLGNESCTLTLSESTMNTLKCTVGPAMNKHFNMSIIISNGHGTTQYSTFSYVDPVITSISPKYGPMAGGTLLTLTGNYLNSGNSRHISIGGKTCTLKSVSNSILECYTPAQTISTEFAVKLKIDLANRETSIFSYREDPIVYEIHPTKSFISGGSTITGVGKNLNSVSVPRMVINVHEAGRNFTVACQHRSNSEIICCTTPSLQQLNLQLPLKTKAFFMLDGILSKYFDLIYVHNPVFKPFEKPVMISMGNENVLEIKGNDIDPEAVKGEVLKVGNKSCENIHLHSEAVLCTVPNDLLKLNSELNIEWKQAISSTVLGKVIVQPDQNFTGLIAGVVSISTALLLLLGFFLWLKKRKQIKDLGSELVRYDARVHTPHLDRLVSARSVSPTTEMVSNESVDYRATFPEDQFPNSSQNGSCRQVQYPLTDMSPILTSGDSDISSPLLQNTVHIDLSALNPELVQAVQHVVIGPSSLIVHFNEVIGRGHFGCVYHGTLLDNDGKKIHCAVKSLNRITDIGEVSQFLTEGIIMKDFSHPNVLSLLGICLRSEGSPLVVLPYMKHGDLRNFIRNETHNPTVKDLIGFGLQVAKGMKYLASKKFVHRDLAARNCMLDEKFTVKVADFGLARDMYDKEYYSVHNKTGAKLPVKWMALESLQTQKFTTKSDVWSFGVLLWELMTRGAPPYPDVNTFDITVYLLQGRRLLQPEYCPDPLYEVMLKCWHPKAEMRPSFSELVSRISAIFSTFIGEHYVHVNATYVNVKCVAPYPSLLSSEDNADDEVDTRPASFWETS
Description: Competitive inhibition of c-MET phosphorylation (unknown origin) at 25 to 100 nM after 60 mins by Omnia kinase assay

[9] = tested on: MDA-MB-231; experiment: Antimigratory activity against human MDA-MB-231 cells at 50 uM after 24 hrs by wound healing assay; format: functional, cell-based
[10] = tested on: MDA-MB-231; experiment: Antiinvasive activity against human MDA-MB-231 cells assessed as cell invasion at 20 uM after 24 hrs by Cultrex BME assay; format: functional
[11] = tested on: MDA-MB-231; experiment: Antiinvasive activity against human MDA-MB-231 cells assessed as cell invasion at 10 uM after 24 hrs by Cultrex BME assay; format: functional
[12] = target: T1, Hepatocyte growth factor receptor; experiment: Competitive inhibition of c-MET phosphorylation (unknown origin) after 60 mins by Omnia kinase assay
[13] = tested on: MDA-MB-231; experiment: Antimigratory activity against human MDA-MB-231 cells at 10 uM after 24 hrs by wound healing assay; format: functional, cell-based
[14] = target: T1, Hepatocyte growth factor receptor; experiment: Inhibition of c-MET phosphorylation (unknown origin) at 10 uM after 1 hr by Z'-LYTE kinase assay

| Compound | Activity [1] | IC50 [2] | IC50 [3] | Activity [4] | inhibition [5] | other results |
| --- | --- | --- | --- | --- | --- | --- |
| O=C(NCc1ccccc1)OCCc1ccc(O)cc1 | Non-toxic | > 100 µM | > 100 µM | Non-toxic |  |  |
| O=C(NCc1ccccc1)OCCc1ccc(OC(=O)NCc2ccccc2)cc1 | Non-toxic | > 100 µM | > 100 µM | Non-toxic | inactive |  |
| O=C(/C=C/c1ccc(O)c(O)c1)OCCc1ccc(O)cc1 [TYROSOL CAFFEATE] | Non-toxic | > 100 µM | > 100 µM | Non-toxic | inactive | inhibition at 20 µM [6]: > 50% |
| COc1cc(/C=C/C(=O)OCCc2ccc(O)cc2)cc(OC)c1O [TYROSOL SINAPATE] | Non-toxic |  |  | Non-toxic | inactive | inhibition [7]: Active; inhibition at 20 µM [6]: > 50% |
| C=C[C@@H]1[C@H](O)OC=C(C(=O)OC)[C@H]1CC(=O)OCCc1ccc(O)cc1 [LIGSTROSIDE AGLYCONE] | Non-toxic | 80.4 µM | 13.8 µM | Non-toxic |  | inhibition at 25 µM [7]: 60%; inhibition at 20 µM [6]: > 50% |
| Cc1[nH]c(/C=C2\C(=O)Nc3ccc(S(=O)(=O)N(C)c4cccc(Cl)c4)cc32)c(C)c1C(=O)N1CCN(C)CC1 |  |  |  |  |  | inhibition [8]: Active |
| COc1cc(CC(=O)OCCc2ccc(O)cc2)ccc1O [TYROSOL HOMOVANILLATE] | Non-toxic | > 100 µM | > 100 µM | Non-toxic | inactive |  |
| O=C(Cc1ccc(O)c(O)c1)OCCc1ccc(O)cc1 | Non-toxic | > 100 µM | 41.6 µM | Non-toxic | inactive | inhibition [7]: Active |
| OCCc1ccc(O)cc1 [TYROSOL] | Non-toxic | > 100 µM | > 100 µM | Non-toxic |  | inhibition [9]: inactive |
| Cc1ccc(S(=O)(=O)NC(=O)OCCc2ccc(O)cc2)cc1 [4-HYDROXYPHENETHYL TOSYLCARBAMATE] | Non-toxic | > 100 µM | > 100 µM | Non-toxic | inactive |  |
| COc1cc(C(=O)OCCc2ccc(O)cc2)cc(OC)c1O [TYROSOL SYRINGATE] | Non-toxic | > 100 µM | 19.4 µM | Non-toxic | inactive | inhibition at 25 µM [7]: 60% |
| COc1cc(/C=C/C(=O)OCCc2ccc(O)cc2)cc(OC)c1OC | Non-toxic | > 100 µM | 46.7 µM | Non-toxic | inactive | inhibition [7]: Active |
| CCn1cc(C(=O)OCCc2ccc(O)cc2)c(=O)c2ccc(C)nc21 | Non-toxic |  |  | Non-toxic |  | Activity [10]: 36%; Activity [11]: 60% |
| C/C=C(/C=O)[C@@H](CC=O)CC(=O)OCCc1ccc(O)cc1 [(-)-OLEOCANTHAL] | Non-toxic |  |  | Non-toxic | inactive | inhibition [12]: Active; inhibition [13]: Active; inhibition [14]: 93.4% |
